pIC50: −log10 of the molar value.

A short description of data set [1]: EFdA rat PK studies (SC and IM). It is filed as in vivo, Wistar Han rats. An excerpt:
A total of seven naïve male Wistar Han rats, 200-250 g, were received from the supplier equipped with a surgically-implanted jugular vein catheter (JVC) for blood sample collection. Following an acclimation period, the animals were assigned to the study based on acceptable health as determined by a staff veterinarian and catheter patency. Animals were placed into two groups of 3 rats per group. Fasting of the animals before or after dosing was not required.
On Day 1 each animal in Group 1 received a single subcutaneous injection of prepared test article at a target dose level of 20 mg/kg and at a dose volume of 0.33 mL/kg. Each animal in Group 2 received a single intramuscular injection of prepared test article into a thigh muscle at a target dose level of 20 mg/kg and at a dose volume of 0.33 mL/kg. The injection sites were shaved prior to dosing and identified with an indelible marker for daily monitoring during the study. The animals were manually restrained for dosing and were not sedated. The dose suspension was mixed well by inversion before each dose to ensure homogeneity. […] In addition, all animals are monitored twice daily by the veterinary staff for clinical abnormalities. […]
The PK plasma samples were analyzed by the Testing Facility to determine the concentration of EFdA using an LC-MS/MS Research Grade Assay (RGA-1) with sensitivity to 0.1 ng/mL. […]

In data set [2] the test system is HIV pseudotyped virus (NL4-3 provirus, luciferase reporter), WT. The experiment in a line: PSV (pseudotyped virus) assay, WT. Conditions: Human immunodeficiency virus 1, NL43, 72 h, read-out: WT IC50.
Method: A pseudotyped virus assay (PSV) was used to assess the potency of the HIV inhibitor.
The PSV assay was performed by using U373 cells stably transformed to express human CD4, the primary receptor for HIV entry and either human CXCR4 or human CCR5 which are the co-receptors required for HIV entry as target cells for infection. […] This dose-range was applied to U373 cells and the pre-made pseudotyped virus added. The amount of luciferase signal produced after 3 days of culture was used to reflect the level of pseudotyped virus infection. An IC50, or the concentration of inhibitor required to reduce PSV infection by 50% from the infection containing no inhibitor was calculated. […] IC50 values were determined from a 10 point dose response curve using 3-4-fold serial dilution for each compound, which spans a concentration range>1000 fold.
These values are plotted against the molar compound concentrations using the standard four parameter logistic equation: y=((Vmax*x^n)/(K^n+x^n))+Y2
The subject of data set [3] is HIV pseudotyped virus, M184V. The class given is cell-based. Conditions: U373 cells (CD4, CXCR4 or CCR5), luciferase signal after 3 days.

As for `C#C[C@]1(CO)O[C@@H](n2cnc3c(N)nc(F)nc32)C[C@@H]1O` [EFdA, (2R,3S,5R)-5-(6-amino-2-fluoro-9H-purin-9-yl)-2-ethynyl-2-(hydroxymethyl)tetrahydrofuran-3-ol], in data set [1] (20 mg/kg single SC or IM injection, study period to Day 29), the “Clinical observations and injection site reactions” value is “No abnormal clinical observations and no injection site reactions”. For the same compound, the “Detectable duration of exposure of EFdA” value in data set [1] (IM and SC administration of 20 mg/kg EFdA) is listed as “less than 8 days”.
With `C#C[C@]1(COC(=O)CCCCCC)O[C@@H](n2cnc3c(N)nc(F)nc32)C[C@@H]1OC(=O)CCCCCC` [Example 16, (2R,3S,5R)-5-(6-amino-2-fluoro-9H-purin-9-yl)-2-ethynyl-2-((heptanoyloxy)methyl)tetrahydrofuran-3-yl Heptanoate], the results for the pIC50 in data set [2] and in data set [3] were 8.10 and 7.51, respectively.
For `C#C[C@]1(COC(=O)CCCCCCCCC)O[C@@H](n2cnc3c(N)nc(F)nc32)C[C@@H]1OC(=O)OCC` [Example 15, ((2R,3S,5R)-5-(6-amino-2-fluoro-9H-purin-9-yl)-3-((ethoxycarbonyl)oxy)-2-ethynyltetrahydrofuran-2-yl)methyl Decanoate], the figures for the pIC50 in data set [2] and in data set [3] were 7.11 and 6.48, respectively.
With `C#C[C@]1(COC(=O)CCCCCCCCC(=O)O)O[C@@H](n2cnc3c(N)nc(F)nc32)C[C@@H]1O` [Example 9, 10-(((2R,3S,5R)-5-(6-amino-2-fluoro-9H-purin-9-yl)-2-ethynyl-3-hydroxytetrahydrofuran-2-yl)methoxy)-10-oxodecanoic Acid], the pIC50 in data set [2] is 7.46; in data set [3] it was 6.78.
Take `C#C[C@]1(COC(=O)CCCCCCCCCCCCC(=O)O)O[C@@H](n2cnc3c(N)nc(F)nc32)C[C@@H]1O` [Example 10, 14-(((2R,3S,5R)-5-(6-amino-2-fluoro-9H-purin-9-yl)-2-ethynyl-3-hydroxytetrahydrofuran-2-yl)methoxy)-14-oxotetradecanoic Acid]: the pIC50 in data set [2] was 8.05; in data set [3], 7.36.
For `C#C[C@]1(COC(=O)CCCC)O[C@@H](n2cnc3c(N)nc(F)nc32)C[C@@H]1OC(=O)CCCCCCCCCC` [Example 21, (2R,3S,5R)-5-(6-amino-2-fluoro-9H-purin-9-yl)-2-ethynyl-2-((pentanoyloxy)methyl)tetrahydrofuran-3-yl Undecanoate], the pIC50 in data set [2] is 8.15; in data set [3], 7.36.
For `C#C[C@@]12COC(=O)CCCCCCCCCCCCC(=O)O[C@H]1C[C@H](n1cnc3c(N)nc(F)nc31)O2` [Example 33, (2R,3aS,20aR)-2-(6-amino-2-fluoro-9H-purin-9-yl)-20a-ethynylhexadecahydro-2H-furo[3,2-b][1,5]dioxacyclononadecine-5,18-dione] the same measures were 7.77 and 7.07.
For `C#C[C@]1(COC(=O)C2CCCCC2)O[C@@H](n2cnc3c(N)nc(F)nc32)C[C@@H]1O` [Example 1, ((2R,3S,5R)-5-(6-amino-2-fluoro-9H-purin-9-yl)-2-ethynyl-3-hydroxytetrahydrofuran-2-yl)methyl Cyclohexanecarboxylate] the same measures were 8.70 and 8.10.

As usually defined, the pIC50 is the IC50 on a negative log10 scale, so that one unit is a factor of ten.

These data come from patent US12240853B2, “Compounds useful in HIV therapy” (GlaxoSmithKline Intellectual Property (No.2) Limited, priority 2019, dated 2025).
